The values below come from US12492188B2, “1H-benzo[D]imidazole derivatives as TLR9 inhibitors for the treatment of fibrosis” (BRISTOL-MYERS SQUIBB COMPANY, priority 2020, dated 2025).

The structures appear in SMILES notation. Read-outs that look alike come from different tables or passages of the source.

Common to all, as to format: cell-based
One assay addresses T1, human TLR9 (Homo sapiens, UniProt Q9NR96).
T1 construct: host or cells: HEK-Blue cells (HEK293-derived reporter line)
T1 sequence (Q9NR96 26-1032): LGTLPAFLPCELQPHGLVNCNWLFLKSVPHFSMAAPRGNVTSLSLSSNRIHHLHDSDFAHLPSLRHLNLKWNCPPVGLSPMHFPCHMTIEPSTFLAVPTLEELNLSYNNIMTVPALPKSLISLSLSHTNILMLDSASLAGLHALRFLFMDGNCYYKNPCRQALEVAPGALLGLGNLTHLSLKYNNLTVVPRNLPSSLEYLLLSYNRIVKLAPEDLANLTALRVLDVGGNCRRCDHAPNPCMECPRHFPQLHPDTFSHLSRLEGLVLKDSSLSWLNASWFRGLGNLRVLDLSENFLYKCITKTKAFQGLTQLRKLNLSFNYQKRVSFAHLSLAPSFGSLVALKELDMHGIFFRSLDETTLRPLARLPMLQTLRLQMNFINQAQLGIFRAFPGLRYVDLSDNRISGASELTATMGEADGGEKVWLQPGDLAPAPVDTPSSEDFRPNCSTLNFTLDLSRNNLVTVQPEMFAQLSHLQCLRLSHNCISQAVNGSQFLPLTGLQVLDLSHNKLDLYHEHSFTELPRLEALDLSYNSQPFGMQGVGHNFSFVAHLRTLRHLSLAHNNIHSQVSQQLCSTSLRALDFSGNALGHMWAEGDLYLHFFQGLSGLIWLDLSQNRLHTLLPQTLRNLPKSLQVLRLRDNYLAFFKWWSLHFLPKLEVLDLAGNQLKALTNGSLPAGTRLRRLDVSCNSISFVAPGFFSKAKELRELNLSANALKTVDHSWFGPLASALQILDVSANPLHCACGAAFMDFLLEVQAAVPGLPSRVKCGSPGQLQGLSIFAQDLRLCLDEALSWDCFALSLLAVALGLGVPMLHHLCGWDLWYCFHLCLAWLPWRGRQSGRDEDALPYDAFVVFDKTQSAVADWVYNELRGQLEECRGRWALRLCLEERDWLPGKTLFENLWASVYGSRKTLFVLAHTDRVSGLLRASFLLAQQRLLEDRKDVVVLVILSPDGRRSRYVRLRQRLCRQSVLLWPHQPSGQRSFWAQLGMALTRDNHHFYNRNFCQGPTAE
Nature of the assay: TLR9 inhibition reporter assay (HEK-Blue cells, secreted embryonic alkaline phosphatase reporter). In short, it runs like this:
(§1)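 Read-out is SEAP colour from HEK-Blue Detection medium after 22 h at 37 °C, converted to percent inhibition between agonist-plus-DMSO and reference-inhibitor wells. Receptor-overexpressing HEK-Blue cells received compound over 0.05 nM–50 μM for 30 min before agonist: gardiquimod 7.5 μM for TLR7, R848 15.9 μM for TLR8, ODN2006 5 nM for TLR9.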

A further assay concerns the target T2, human TLR8 (Homo sapiens, UniProt Q9NR97).
T2 construct: host or cells: HEK-Blue cells (HEK293-derived reporter line)
T2 sequence (Q9NR97 27-1041): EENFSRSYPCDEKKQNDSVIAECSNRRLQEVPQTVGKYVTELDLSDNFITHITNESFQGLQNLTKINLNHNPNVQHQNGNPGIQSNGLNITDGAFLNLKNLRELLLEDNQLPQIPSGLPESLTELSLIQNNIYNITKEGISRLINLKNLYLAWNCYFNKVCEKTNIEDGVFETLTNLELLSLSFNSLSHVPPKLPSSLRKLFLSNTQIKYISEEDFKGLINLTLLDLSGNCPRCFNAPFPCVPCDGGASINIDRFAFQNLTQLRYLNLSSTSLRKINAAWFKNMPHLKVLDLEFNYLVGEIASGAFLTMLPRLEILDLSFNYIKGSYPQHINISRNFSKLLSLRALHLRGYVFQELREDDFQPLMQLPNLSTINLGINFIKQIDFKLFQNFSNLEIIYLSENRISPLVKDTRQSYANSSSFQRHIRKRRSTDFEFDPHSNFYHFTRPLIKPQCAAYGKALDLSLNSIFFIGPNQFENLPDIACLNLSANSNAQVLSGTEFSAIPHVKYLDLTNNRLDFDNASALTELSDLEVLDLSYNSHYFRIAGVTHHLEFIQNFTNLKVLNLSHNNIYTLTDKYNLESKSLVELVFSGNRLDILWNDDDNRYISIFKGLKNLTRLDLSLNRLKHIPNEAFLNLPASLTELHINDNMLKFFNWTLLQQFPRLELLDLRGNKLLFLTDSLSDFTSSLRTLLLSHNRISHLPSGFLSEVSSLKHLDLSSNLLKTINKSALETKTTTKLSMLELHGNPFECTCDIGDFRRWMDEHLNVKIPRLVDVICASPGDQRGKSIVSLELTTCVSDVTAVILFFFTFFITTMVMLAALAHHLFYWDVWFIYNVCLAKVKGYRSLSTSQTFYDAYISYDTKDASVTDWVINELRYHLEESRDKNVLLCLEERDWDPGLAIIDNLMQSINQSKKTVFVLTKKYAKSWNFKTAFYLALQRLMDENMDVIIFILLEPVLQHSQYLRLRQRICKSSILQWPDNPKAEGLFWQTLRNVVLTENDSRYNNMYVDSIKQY
Nature of the assay: TLR8 inhibition reporter assay (HEK-Blue cells, secreted embryonic alkaline phosphatase reporter). Particulars: HEK-Blue cells overexpressing human TLR8, stimulated with R848 15.9 μM; read-out: TLR 8 IC50. In short, it runs like this:
as §1

In a further assay the target is T3, human TLR7 (Homo sapiens, UniProt Q9NYK1).
T3 construct: host or cells: HEK-Blue cells (HEK293-derived reporter line)
T3 sequence (Q9NYK1 27-1049): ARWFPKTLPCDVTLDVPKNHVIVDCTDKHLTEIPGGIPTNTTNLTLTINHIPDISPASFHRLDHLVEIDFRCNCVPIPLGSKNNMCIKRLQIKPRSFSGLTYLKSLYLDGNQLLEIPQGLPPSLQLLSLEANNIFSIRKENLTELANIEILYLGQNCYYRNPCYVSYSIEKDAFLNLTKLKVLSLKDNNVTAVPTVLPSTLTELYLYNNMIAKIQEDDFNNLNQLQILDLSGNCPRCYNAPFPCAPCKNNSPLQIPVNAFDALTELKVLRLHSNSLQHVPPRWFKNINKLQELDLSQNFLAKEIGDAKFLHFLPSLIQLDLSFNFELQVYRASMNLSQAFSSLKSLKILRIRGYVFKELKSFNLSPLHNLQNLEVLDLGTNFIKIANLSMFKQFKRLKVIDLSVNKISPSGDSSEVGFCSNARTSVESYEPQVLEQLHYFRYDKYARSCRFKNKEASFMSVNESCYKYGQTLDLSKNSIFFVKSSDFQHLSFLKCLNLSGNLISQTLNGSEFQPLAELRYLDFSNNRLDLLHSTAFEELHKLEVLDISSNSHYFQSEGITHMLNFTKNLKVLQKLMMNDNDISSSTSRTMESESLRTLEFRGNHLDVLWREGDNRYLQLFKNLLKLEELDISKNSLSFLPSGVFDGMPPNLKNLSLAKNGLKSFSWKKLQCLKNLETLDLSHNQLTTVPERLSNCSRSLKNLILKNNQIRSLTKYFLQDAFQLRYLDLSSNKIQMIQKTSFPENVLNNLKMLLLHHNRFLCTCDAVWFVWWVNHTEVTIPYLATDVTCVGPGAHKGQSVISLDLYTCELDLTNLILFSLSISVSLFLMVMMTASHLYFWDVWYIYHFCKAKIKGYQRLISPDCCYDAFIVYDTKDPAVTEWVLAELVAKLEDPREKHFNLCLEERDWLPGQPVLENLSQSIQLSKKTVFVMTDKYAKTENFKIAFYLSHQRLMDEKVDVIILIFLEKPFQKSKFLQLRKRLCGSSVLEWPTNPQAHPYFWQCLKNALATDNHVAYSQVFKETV
Nature of the assay: TLR7 inhibition reporter assay (HEK-Blue cells, secreted embryonic alkaline phosphatase reporter). The following applies: HEK-Blue cells overexpressing human TLR7, stimulated with gardiquimod 7.5 μM; read-out: TLR 7 IC50. In short, it runs like this:
as §1

[1] abbreviates: HEK-Blue cells overexpressing human TLR9, stimulated with ODN2006 5 nM, read-out: TLR 9 IC50.

For the compound `Cn1c(-c2ccc(S(C)(=O)=O)cc2)nc2cc(F)c(C3CCN(C4CCN(C5COC5)CC4)CC3)cc21` [Example 225, 5-fluoro-1-methyl-2-(4-(methylsulfonyl)phenyl)-6-(1′-(oxetan-3-yl)-[1,4′-bipiperidin]-4-yl)-1H-benzo[d]imidazole], the IC50 against human TLR9 was 5400 nM; at human TLR9 (setting [1]) it was 5350 nM; on human TLR8, above 50000 nM; at human TLR7 it was above 50000 nM.
As to `Cn1c(-c2ccc(S(C)(=O)=O)cc2)nc2cc(F)c(C3CCN(C4CCN(C5CCOCC5)CC4)CC3)cc21` [Example 226, 5-fluoro-1-methyl-2-(4-(methylsulfonyl)phenyl)-6-(1′-(tetrahydro-2H-pyran-4-yl)-[1,4′-bipiperidin]-4-yl)-1H-benzo[d]imidazole], the concentration for half-maximal inhibition (IC50) against human TLR9 is 900 nM; at human TLR9 (setting [1]) it was 898 nM; on human TLR8 it was above 50000 nM; at human TLR7, above 50000 nM.
Regarding `COCCN1CCC(N2CCC(c3cc4c(cc3F)nc(-c3ccc(S(C)(=O)=O)cc3)n4C)CC2)CC1` [Example 227, 5-fluoro-6-(1′-(2-methoxyethyl)-[1,4′-bipiperidin]-4-yl)-1-methyl-2-(4-(methylsulfonyl)phenyl)-1H-benzo[d]imidazole], the half-inhibitory concentration (IC50) at human TLR9 is 410 nM; at human TLR9 (setting [1]), 407 nM; at human TLR8, above 50000 nM; at human TLR7, 27400 nM.
`Cn1c(-c2ccc(S(C)(=O)=O)cc2)nc2cc(F)c(C3CCN(C4CC5CCC(C4)N5CC4CC4)CC3)cc21` (stereo not shown) [Example 230, 6-(1-(8-(cyclopropylmethyl)-8-azabicyclo[3.2.1]octan-3-yl)piperidin-4-yl)-5-fluoro-1-methyl-2-(4-(methylsulfonyl)phenyl)-1H-benzo[d]imidazole]: the IC50 on human TLR9 was 36 nM; at human TLR9 (setting [1]), 36 nM; on human TLR8, above 50000 nM; on human TLR7 it was 32400 nM.
For the compound `Cn1c(-c2ccc(S(C)(=O)=O)cc2)nc2cc(F)c(C3CCN(C4CC5CCC(C4)N5CC4CC4)CC3)cc21` (stereo not shown) [Example 231, 6-(1-(8-(cyclopropylmethyl)-8-azabicyclo[3.2.1]octan-3-yl)piperidin-4-yl)-5-fluoro-1-methyl-2-(4-(methylsulfonyl)phenyl)-1H-benzo[d]imidazole], the IC50 against human TLR9 is 58 nM; on human TLR9 (setting [1]), 58 nM; on human TLR8 it was above 50000 nM; on human TLR7 it was above 50000 nM.
As for `Cn1c(-c2ccc(S(C)(=O)=O)cc2)nc2cc(F)c(C3CCN(C4CC5CCC(C4)N5C4CCC4)CC3)cc21` (stereo not shown) [Example 232, 6-(1-(8-cyclobutyl-8-azabicyclo[3.2.1]octan-3-yl)piperidin-4-yl)-5-fluoro-1-methyl-2-(4-(methylsulfonyl)phenyl)-1H-benzo[d]imidazole], the IC50 on human TLR9 is 45 nM; at human TLR9 (setting [1]), 45 nM; on human TLR8, above 50000 nM; on human TLR7 it was 22400 nM.
With `Cn1c(-c2ccc(S(C)(=O)=O)cc2)nc2cc(F)c(C3CCN(C4CC5CCC(C4)N5C4CCC4)CC3)cc21` (stereo not shown) [Example 233, 6-(1-(8-cyclobutyl-8-azabicyclo[3.2.1]octan-3-yl)piperidin-4-yl)-5-fluoro-1-methyl-2-(4-(methylsulfonyl)phenyl)-1H-benzo[d]imidazole], the IC50 was 58 nM against human TLR9, 58 nM on human TLR9 (setting [1]), above 50000 nM at human TLR8 and 29000 nM on human TLR7.
With `Cn1c(-c2ccc(S(C)(=O)=O)cc2)nc2cc(F)c(C3CCN(C4CC5CCC(C4)N5C4CCOCC4)CC3)cc21` (stereo not shown) [Example 236, 5-fluoro-1-methyl-2-(4-(methylsulfonyl)phenyl)-6-(1-(8-(tetrahydro-2H-pyran-4-yl)-8-azabicyclo[3.2.1]octan-3-yl)piperidin-4-yl)-1H-benzo[d]imidazole], the IC50 is 99 nM on human TLR9, 99 nM on human TLR9 (setting [1]), above 50000 nM on human TLR8 and above 50000 nM at human TLR7.
Turning to `Cn1c(-c2ccc(S(C)(=O)=O)cc2)nc2cc(F)c(C3CCN(C4CC5CCC(C4)N5C4CCOCC4)CC3)cc21` (stereo not shown) [Example 237, 5-fluoro-1-methyl-2-(4-(methylsulfonyl)phenyl)-6-(1-(8-(tetrahydro-2H-pyran-4-yl)-8-azabicyclo[3.2.1]octan-3-yl)piperidin-4-yl)-1H-benzo[d]imidazole], the IC50 was 87 nM at human TLR9, 87 nM at human TLR9 (setting [1]), above 50000 nM on human TLR8 and above 50000 nM on human TLR7.
With `CC(C)CN1CCC(N2CCC(c3cc4nc(-c5ccc(S(C)(=O)=O)cc5)n(C)c4cc3F)CC2)CC1` [Example 240, 6-fluoro-5-(1′-isobutyl-[1,4′-bipiperidin]-4-yl)-1-methyl-2-(4-(methylsulfonyl)phenyl)-1H-benzo[d]imidazole], the IC50 on human TLR9 is 120 nM; on human TLR9 (setting [1]) it was 121 nM; at human TLR8, above 50000 nM; on human TLR7, 6600 nM.
